According to patent publication US20260200923A1, “HETEROCYCLIC COMPOUNDS TARGETING THE NUDT5 PROTEIN” (Oxford University Innovation Limited, priority 2022, published 2026):

Experiments:
NUDT5 = NUDT5 (Homo sapiens, UniProt Q9UKK9); experiment: CRBN knock-out experiment, NUDT5 degradation; assay type: cell-based; design: endogenous in cells; host or cells: HEK293 (also CRBN knock-out HEK293 for A13); details: CRBN knock-out HEK293 cells, 20 h
NUDT5-CRBN interaction = biological target: T1, NUDT5-CRBN interaction (Homo sapiens, UniProt Q96SW2+Q9UKK9); experiment: NanoBRET ternary complex formation (protein-protein interaction) assay; assay type: cell-based; details: HEK293 cells, 4 h
T1 construct: expressed in transfected cells; host or cells: HEK293
Method: For NanoBRET protein-protein interaction assay, NanoBRET Nano-Glo Detection System (N1662, Promega) was used according to the manufacturer's instruction. In brief, 220,000 HEK293 cells/ml was seeded in a 6-well plate. After 6 h, N-terminal nanoLuc NUDT5 and Halo-tag CRBN were then transfected into the cells using Fugene HD transfection reagent (E2312, Promega). The transfected HEK293 (220,000 cells/ml) were then replated onto a 384-well plate containing compounds. After 4 h incubation, NanoLuc substrate was added into each well and the signals were measured by PHERAstar Microplate Reader.
(§1) Compounds were dispensed in the 384-well plates by using Echo Acoustic Dispenser.

luciferase-tagged NUDT5 = biological target: T2, luciferase-tagged NUDT5 (Homo sapiens, UniProt Q9UKK9); experiment: NanoBRET target engagement assay; assay type: cell-based; details: live cells, 2 h
T2 construct: expressed in transfected cells; host or cells: HEK293T
Method: For NanoBRET target engagement assay, intracellular TE Nano-Glo substrate/inhibitor (N2161, Promega) was used according to the manufacturer's instruction. In brief, 200,000 HEK293T cells/ml was seeded in a T-75 flask. N-terminal NanoLuciferse NUDT5 was reverse transfected into the cells using Fugene HD transfection reagent (E2312, Promega). After 24 h the transfected HEK293 (200,000 cells/ml) were replated onto a 384-well plate containing compounds. 2.5 nM NU008116a was used as the final tracer concentration. After 2 h, NanoLuc substrate and inhibitor was added into each well and the signals were measured by PHERAstar Microplate Reader.
as §1

HAP1 cells = experiment: untargeted global proteomics; assay type: cell-based, human; details: 100 nM, 6 and 24 h
Method: Proteomics samples were digested with trypsin using STrap columns following the manufacturer's protocol (C02-micro, ProtiFi). For untargeted global proteomics HAP1 cells were treated with DMSO or 100 nM dNUDT5 for 6 h or 24 h. Then, the cell pellets were collected and lysed in 5% SDS containing 1 μL/mL benzonase (E1014, Millipore) and subsequent short sonication to shear genomic DNA (1× 2 s pulse, 20% amplitude, microtip, Sonics Vibra Cell). 50 μg protein from the total cell lysate or 80% of the elution fraction of the chemical pulldown were first reduced by 20 mM dithiothreitol (M02712, Fluorochem), and alkylated by 40 mM iodoacetamide (I1149, Sigma). Phosphoric acid and S-Trap protein binding buffer were added into the sample lysates. Then, the SDS lysate/S-Trap buffer were loaded into a S-Trap column (C02-micro-80, ProtiFi). 1 μg of trypsin (V5111, Promega) was used to digest each sample at 37° C. for 20 h. The samples were then eluted and dried by vacuum centrifugation. […]
Raw data were searched against the human database (UP000005640, downloaded 08/21) using DIA-NN (Demichev et al. 2020 Nature Methods) by enabling FASTA digest for library free search and Deep learning-based spectra, RTs and IMs prediction. […] The protein groups matrix was further analysed using Perseus (1.6.2.1) or R studio (4.1.1). […] Proteins were removed if detected less than 2 times in each group. […]

Cn1c(=O)c2c(nc(N3CCN(C(=O)N4CCC(CN5CCN(c6ccc7c(c6)C(=O)N(C6CCC(=O)NC6=O)C7=O)CC5)CC4)CC3)n2Cc2nnc(-c3ccc(Cl)c(Cl)c3)o2)n(C)c1=O (stereo not drawn) [dNUDT5, 7-((5-(3,4-dichlorophenyl)-1,3,4-oxadiazol-2-yl)methyl)-8-(4-(4-((4-(2-(2,6-dioxopiperidin-3-yl)-1,3-dioxoisoindolin-5-yl)piperazin-1-yl)methyl)piperidine-1-carbonyl)piperazin-l-yl)-1,3-dimethyl-3,7-dihydro-1H-purine-2,6-dione]
dependence of degradation on E3 ligase (NUDT5): E3-ligase-dependant | ternary complex formation between NUDT5 and CRBN (NUDT5-CRBN interaction): able to induce proficient ternary complex formation | NUDT5 engagement / recruitment (luciferase-tagged NUDT5): engaged their cognate target NUDT5 in live cells | proteome-wide specificity of degradation (HAP1 cells): highly specific for NUDT5 with no other protein being degraded
